Measurements taken from ChEMBL document CHEMBL2157907, “Optimization of anti-Trypanosoma cruzi oxadiazoles leads to identification of compounds with efficacy in infected mice” (Bioorg Med Chem, 2012).
Activity calls are given as the source filed them. The rule behind the calls is not given here.

Legend:
[1] = biological target: Cruzipain (Trypanosoma cruzi) (UniProt P25779); assay: Inhibition of Trypanosoma cruzi cruzain using Z-Phe-Arg-aminomethylcoumarin as substrate at 100 uM after 10 mins
[2] = Cytotoxicity against BALB/c mouse splenocytes after 24 hrs by [3H]-thymidine incorporation assay; assay type: cell-based, Splenocyte; details: read-out: LC50
[3] = tested on: Trypanosoma cruzi; assay: Antitrypanosomal activity against trypomastigotes of Trypanosoma cruzi Y infected in BALB/c mouse assessed as reduction of parasite level in blood at 100 mg/kg, po administered after 5 days of postinfection qd for 5 days; assay type: functional, organism-based; design: dose 100 mg/kg
[4] = tested on: Trypanosoma cruzi; assay: Antitrypanosomal activity against trypomastigotes of Trypanosoma cruzi Y infected in rhesus monkey LLC-MK2 cells assessed parasite viability after 24 hrs; assay type: functional, organism-based; details: LLC-MK2, 24 h
[5] = tested on: Trypanosoma cruzi; assay: Antitrypanosomal activity against epimastigotes of Trypanosoma cruzi Y after 5 days; assay type: functional, organism-based; details: 120 h

Cruzipain (Trypanosoma cruzi), sequence (P25779 123-467 limits assumed): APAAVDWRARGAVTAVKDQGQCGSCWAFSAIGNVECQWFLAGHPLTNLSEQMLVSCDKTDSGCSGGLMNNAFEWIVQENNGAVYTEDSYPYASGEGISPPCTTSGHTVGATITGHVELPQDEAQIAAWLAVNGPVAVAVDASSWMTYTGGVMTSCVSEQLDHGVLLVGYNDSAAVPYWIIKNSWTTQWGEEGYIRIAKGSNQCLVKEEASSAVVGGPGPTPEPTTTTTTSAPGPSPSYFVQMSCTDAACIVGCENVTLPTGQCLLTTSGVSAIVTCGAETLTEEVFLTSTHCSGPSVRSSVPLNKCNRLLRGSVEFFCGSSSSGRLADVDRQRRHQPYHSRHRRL

Question: For COc1ccc(-c2noc(C(=O)N/N=C/c3ccc4c(c3)OCO4)n2)cc1, which inhibition [1] is on record?
Answer: 44%

Question: What about the CC50 at 24 h [2] of the same molecule?
Answer: > 100 µg/mL

Question: Which inhibition [1] does the source give for COc1cc(/C=N/NC(=O)c2nc(-c3ccc([N+](=O)[O-])cc3)no2)ccc1O here?
Answer: 47%

Question: What about the CC50 at 24 h [2] of the same molecule?
Answer: > 100 µg/mL

Question: With O=C(N/N=C/c1ccc2c(c1)OCO2)c1nc(-c2ccc(O)cc2)no1 as the molecule, how does the inhibition [1] read?
Answer: 17%

Question: What about the CC50 at 24 h [2] of the same molecule?
Answer: > 100 µg/mL

Question: With O=C(N/N=C/c1ccc2c(c1)OCO2)c1nc(-c2ccc([N+](=O)[O-])cc2)no1 as the molecule, how does the CC50 at 24 h [2] read?
Answer: > 100 µg/mL

Question: With O=C(Cn1ccnc1[N+](=O)[O-])NCc1ccccc1 [BENZNIDAZOLE] as the molecule, how does the Activity [3] read?
Answer: Active

Question: What about the IC50 [4] of the same molecule?
Answer: 11.3 µM

Question: And the IC50 [5]?
Answer: 7.5 µM
